Measured values: patent US20020028805A1, “Methods of inhibiting uterotrophic effects of estrogenic agents” (American Home Products Corporation, priority 2000, published 2002)
“Also recorded” adds a separate entry of the source.

System: immature rat uterus
Assay: 3-day uterine model: uterine wet weight in immature rats
Conditions: for Effect on ethinyl estradiol induced uterine wet weight increase (in words): 100 μg in combination with 0.5 μg ethinyl estradiol; for Effect on ethinyl estradiol induced uterine wet weight increase (in words) / Effect on raloxifene induced uterine stimulation (in words): three days; for % increase weight (vs. control) / Mean Wet Weight: 3 days; for Effect on raloxifene induced uterine stimulation (in words): co-administered with raloxifene (10 μg; 1 μmg [sic], ~0.2 mg/kg), 1-100 μg, 0.2 mg/kg; for Agonist effect on uterine wet weight (in words) / Increase in uterine wet weight over control: compound alone; for Agonist effect on uterine wet weight (in words): 10 and 100 μg/rat, three days of treatment, 1-way ANOVA; for Increase in uterine wet weight over control: for TSE-424 the highest increase seen
[1] = Experiment No. 1, 10 μg alone, s.c.
[2] = Experiment No. 1, 100 μg + EE (0.5 μg ethinyl estradiol), s.c.
[3] = Experiment No. 1, 100 μg alone, s.c.
[4] = Experiment No. 2, 1 μg + Raloxifene 10 μg
[5] = Experiment No. 2, 10 μg + Raloxifene 10 μg
[6] = Experiment No. 2, 10 μg alone, s.c.
[7] = Experiment No. 2, 50 μg + Raloxifene 10 μg
[8] = Experiment No. 2, 100 μg + Raloxifene 10 μg
[9] = Experiment No. 2, 100 μg alone, s.c.
[10] = Experiment No. 4, 10 μg alone, s.c.
[11] = Experiment No. 4, 100 μg alone, s.c.
[12] = Experiment No. 3, 10 μg alone, s.c.
[13] = Experiment No. 3, 100 μg + EE (0.5 μg ethinyl estradiol), s.c.
[14] = Experiment No. 3, 100 μg alone, s.c.
[15] = Experiment No. 4, 1 μg + Raloxifene 10 μg
[16] = Experiment No. 4, 10 μg + Raloxifene 10 μg
[17] = Experiment No. 4, 50 μg + Raloxifene 10 μg
[18] = Experiment No. 4, 100 μg + Raloxifene 10 μg

Structure (SMILES): Cc1c(-c2ccc(O)cc2)n(Cc2ccc(OCCN3CCCCC3)cc2)c2ccc(O)cc12 [ERA-923, 2-(4-Hydroxy-phenyl)-3-methyl-1-(4-(2-piperidin-1-yl-ethoxy)-benzyl]-1H-indol-5-ol]
- Effect on ethinyl estradiol induced uterine wet weight increase (in words): reduced ethinyl estradiol induced wet weight increases to control values; also recorded: reduced the increased wet weight stimulated by ethinyl estradiol to control
- % increase weight (vs. control) [1]: 129.8%
- Mean Wet Weight [1]: 39.9 mg
- % increase weight (vs. control) [2]: 79.1%
- Mean Wet Weight [2]: 24.3 mg
- % increase weight (vs. control) [3]: 89.3%
- Mean Wet Weight [3]: 27.5 mg
- % increase weight (vs. control) [4]: 144.4%
- Mean Wet Weight [4]: 38.7 mg
- % increase weight (vs. control) [5]: 100.8%
- Mean Wet Weight [5]: 27.0 mg
- % increase weight (vs. control) [6]: 93.5%
- Mean Wet Weight [6]: 25.1 mg
- % increase weight (vs. control) [7]: 81.6%
- Mean Wet Weight [7]: 21.9 mg
- % increase weight (vs. control) [8]: 81.6%
- Mean Wet Weight [8]: 21.9 mg
- % increase weight (vs. control) [9]: 75.1%
- Mean Wet Weight [9]: 20.1 mg
- Effect on raloxifene induced uterine stimulation (in words): antagonized the uterine stimulation; also recorded: reduced to control values or less at all doses except for 1 μg
- Agonist effect on uterine wet weight (in words): neither ERA-923 nor TSE-424 statistically increased uterine wet weight; also recorded: neither ERA-923 (Experiment No.1) nor TSE-424 (Experiment No. 3) treatments resulted in a statistical increase in uterine wet weight

Structure (SMILES): C#C[C@]1(O)CC[C@H]2[C@@H]3CCc4cc(O)ccc4[C@H]3CC[C@@]21C [Ethinyl estradiol, 17α-ethinyl estradiol, reference compound]
- % increase weight (vs. control) (Experiment No. 1, 0.5 μg s.c.): 205.7%
- Mean Wet Weight (Experiment No. 1, 0.5 μg s.c.): 63.2 mg
- % increase weight (vs. control) (Experiment No. 2, 0.5 μg s.c.): 317.3%
- Mean Wet Weight (Experiment No. 2, 0.5 μg s.c.): 85.1 mg
- % increase weight (vs. control) (Experiment No. 3, 0.5 μg s.c.): 262.1%
- Mean Wet Weight (Experiment No. 3, 0.5 μg s.c.): 94.1 mg
- % increase weight (vs. control) (Experiment No. 4, 0.5 μg s.c.): 406.4%
- Mean Wet Weight (Experiment No. 4, 0.5 μg s.c.): 98.7 mg

Structure (SMILES): O=C(c1ccc(OCCN2CCCCC2)cc1)c1c(-c2ccc(O)cc2)sc2cc(O)ccc12 [Raloxifene, raloxifene, reference compound]
- % increase weight (vs. control) [6]: 172.4%
- Mean Wet Weight [6]: 46.2 mg
- % increase weight (vs. control) [9]: 145.8%
- Mean Wet Weight [9]: 39.1 mg
- % increase weight (vs. control) [10]: 185.2%
- Mean Wet Weight [10]: 45.0 mg
- % increase weight (vs. control) [11]: 175.9%
- Mean Wet Weight [11]: 42.7 mg
- Agonist effect on uterine wet weight (in words): statistically increased uterine wet weights at both tested doses
- Increase in uterine wet weight over control: 75-85%

Structure (SMILES): Cc1c(-c2ccc(O)cc2)n(Cc2ccc(OCCN3CCCCCC3)cc2)c2ccc(O)cc12 [TSE-424, 1-[4-(2-Azepan-1yl-ethoxy)-benzyl]-2-(4-hydroxy-phenyl)-3-methyl-1H-indol-5-ol]
- Effect on ethinyl estradiol induced uterine wet weight increase (in words): reduced ethinyl estradiol induced wet weight increases to control values; also recorded: less than control values
- % increase weight (vs. control) [12]: 92.4%
- Mean Wet Weight [12]: 33.2 mg
- % increase weight (vs. control) [13]: 77.7%
- Mean Wet Weight [13]: 27.9 mg
- % increase weight (vs. control) [14]: 81.9%
- Mean Wet Weight [14]: 29.4 mg
- % increase weight (vs. control) [15]: 170.4%
- Mean Wet Weight [15]: 41.4 mg
- % increase weight (vs. control) [16]: 142%
- Mean Wet Weight [16]: 34.5 mg
- % increase weight (vs. control) [10]: 135.0%
- Mean Wet Weight [10]: 32.7 mg
- % increase weight (vs. control) [17]: 139.3%
- Mean Wet Weight [17]: 33.8 mg
- % increase weight (vs. control) [18]: 136.5%
- Mean Wet Weight [18]: 33.2 mg
- % increase weight (vs. control) [11]: 109.4%
- Mean Wet Weight [11]: 26.6 mg
- Effect on raloxifene induced uterine stimulation (in words): antagonized the uterine stimulation; also recorded: reduced the increased wet weight stimulated by raloxifene to the highest increase seen with TSE-424 alone
- Agonist effect on uterine wet weight (in words): neither ERA-923 nor TSE-424 statistically increased uterine wet weight; also recorded: neither ERA-923 (Experiment No.1) nor TSE-424 (Experiment No. 3) treatments resulted in a statistical increase in uterine wet weight
- Increase in uterine wet weight over control: 35%
